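All cell lines were grown in 96-well plates and treated with compound for 48 hours. GI50 marks 50% less growth. TGI denotes the concentration required for complete inhibition of growth.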
Experiments:
Assay in all cases: growth of human tumour cells (NCI), 48 h
786-0 renal = tested on: 786-0 renal
SK-MEL-28 melanoma = tested on: SK-MEL-28 melanoma
KM20L2 colon = tested on: KM20L2 colon
IGROV1 ovarian = tested on: IGROV1 ovarian
NCI-H23 lung = tested on: NCI-H23 lung
M19-MEL melanoma = tested on: M19-MEL melanoma
OVCAR-3 ovarian = tested on: OVCAR-3 ovarian
SR leukemia = tested on: SR leukemia
HCT-116 colon = tested on: HCT-116 colon
MDA-MB-435 = tested on: MDA-MB-435

## O=C1CCC2(c3ccccc3)Nc3ccccc3N12 (stereo not drawn)
786-0 renal
  TGI: > 100 µM
SK-MEL-28 melanoma
  TGI: > 100 µM
KM20L2 colon
  TGI: > 100 µM
IGROV1 ovarian
  TGI: > 100 µM
NCI-H23 lung
  TGI: > 100 µM
M19-MEL melanoma
  TGI: > 100 µM
OVCAR-3 ovarian
  TGI: > 100 µM

## C=C1C(=O)C23[C@H](O)C1CC[C@H]2[C@]12COC3(O)[C@@H](O)[C@@H]1C(C)(C)CC[C@@H]2O
786-0 renal
  TGI: 24 µM
SR leukemia
  TGI: 34.9 µM
SK-MEL-28 melanoma
  TGI: 12.9 µM
KM20L2 colon
  TGI: 28.3 µM
HCT-116 colon
  TGI: 19.3 µM
IGROV1 ovarian
  TGI: 38.7 µM
NCI-H23 lung
  TGI: 29.8 µM
M19-MEL melanoma
  TGI: 26.3 µM
OVCAR-3 ovarian
  TGI: 28.2 µM

## COc1ccccc1-c1cc(=O)c2cc(C)c(C)c(C(=O)O)c2o1
786-0 renal
  TGI: > 100 µM
SK-MEL-28 melanoma
  TGI: > 100 µM
KM20L2 colon
  TGI: > 100 µM
HCT-116 colon
  TGI: > 100 µM
IGROV1 ovarian
  TGI: > 100 µM
NCI-H23 lung
  TGI: > 100 µM
M19-MEL melanoma
  TGI: > 100 µM
OVCAR-3 ovarian
  TGI: > 100 µM

## OC1=CN=COc2ccccc21
786-0 renal
  TGI: > 100 µM
SK-MEL-28 melanoma
  TGI: > 100 µM
KM20L2 colon
  TGI: > 100 µM
HCT-116 colon
  TGI: > 100 µM
IGROV1 ovarian
  TGI: > 100 µM
NCI-H23 lung
  TGI: > 100 µM
M19-MEL melanoma
  TGI: > 100 µM
OVCAR-3 ovarian
  TGI: > 100 µM

## CC1(C)COC2C(N(Cc3ccccc3)Cc3ccccc3)C(=O)N21 (stereo not drawn)
786-0 renal
  TGI: > 100 µM
SR leukemia
  TGI: 54.7 µM
SK-MEL-28 melanoma
  TGI: > 100 µM
KM20L2 colon
  TGI: > 100 µM
HCT-116 colon
  TGI: > 100 µM
IGROV1 ovarian
  TGI: > 100 µM
NCI-H23 lung
  TGI: > 100 µM
M19-MEL melanoma
  TGI: > 100 µM
OVCAR-3 ovarian
  TGI: > 100 µM

## CN(C)c1ccc(/C=C(\NC(=O)c2ccccc2)c2nc3ccc4c(c3[nH]2)C(=O)c2ccccc2C4=O)cc1
786-0 renal
  TGI: > 100 µM
SK-MEL-28 melanoma
  TGI: > 100 µM
KM20L2 colon
  TGI: > 100 µM
HCT-116 colon
  TGI: > 100 µM
IGROV1 ovarian
  TGI: > 100 µM
NCI-H23 lung
  TGI: > 100 µM
M19-MEL melanoma
  TGI: > 100 µM
OVCAR-3 ovarian
  TGI: > 100 µM

## C#CCN(N=O)C(=O)ON1C(=O)CCC1=O
786-0 renal
  TGI: > 100 µM
SK-MEL-28 melanoma
  TGI: > 100 µM
KM20L2 colon
  TGI: > 100 µM
HCT-116 colon
  TGI: > 100 µM
IGROV1 ovarian
  TGI: > 100 µM
NCI-H23 lung
  TGI: > 100 µM
M19-MEL melanoma
  TGI: > 100 µM
OVCAR-3 ovarian
  TGI: > 100 µM

## COc1cc2c(c3c1c(=O)c1ccccc1n3C)C=CC(C)(C)O2
786-0 renal
  TGI: > 100 µM
SR leukemia
  TGI: 39.5 µM
SK-MEL-28 melanoma
  TGI: > 100 µM
KM20L2 colon
  TGI: > 100 µM
HCT-116 colon
  TGI: > 100 µM
IGROV1 ovarian
  TGI: > 100 µM
NCI-H23 lung
  TGI: > 100 µM
M19-MEL melanoma
  TGI: > 100 µM
OVCAR-3 ovarian
  TGI: > 100 µM

## COC/N=C(\NC#N)NCOC
786-0 renal
  TGI: > 74.6 µM
SR leukemia
  TGI: 54.6 µM
SK-MEL-28 melanoma
  TGI: > 100 µM
KM20L2 colon
  TGI: > 100 µM
HCT-116 colon
  TGI: > 100 µM
IGROV1 ovarian
  TGI: > 100 µM
NCI-H23 lung
  TGI: > 100 µM
M19-MEL melanoma
  TGI: > 100 µM
OVCAR-3 ovarian
  TGI: > 100 µM

## CCOc1ccc(N=C(NC(=O)c2ccccc2)SC)cc1
786-0 renal
  TGI: > 100 µM
SR leukemia
  TGI: > 100 µM
SK-MEL-28 melanoma
  TGI: > 100 µM
KM20L2 colon
  TGI: > 100 µM
HCT-116 colon
  TGI: > 100 µM
IGROV1 ovarian
  TGI: > 100 µM
NCI-H23 lung
  TGI: > 100 µM
M19-MEL melanoma
  TGI: > 100 µM
OVCAR-3 ovarian
  TGI: > 100 µM

## CC1CC2(S(=O)(=O)c3ccccc3)ON1CC2S(=O)(=O)c1ccccc1 (stereo not drawn)
786-0 renal
  TGI: > 100 µM
SR leukemia
  TGI: > 100 µM
SK-MEL-28 melanoma
  TGI: > 100 µM
KM20L2 colon
  TGI: > 100 µM
HCT-116 colon
  TGI: > 100 µM
IGROV1 ovarian
  TGI: > 100 µM
NCI-H23 lung
  TGI: > 100 µM
M19-MEL melanoma
  TGI: > 100 µM
OVCAR-3 ovarian
  TGI: > 100 µM

## COC(=O)C(=O)C(CC(=O)Nc1ccc(C)cc1)C(=O)OC (stereo not drawn)
786-0 renal
  TGI: > 100 µM
SR leukemia
  TGI: > 100 µM
SK-MEL-28 melanoma
  TGI: > 100 µM
KM20L2 colon
  TGI: > 100 µM
HCT-116 colon
  TGI: > 100 µM
IGROV1 ovarian
  TGI: > 100 µM
NCI-H23 lung
  TGI: > 100 µM
M19-MEL melanoma
  TGI: > 100 µM
OVCAR-3 ovarian
  TGI: > 100 µM

## CN(C)C(=S)/N=c1\ssc(=S)n1C
786-0 renal
  TGI: > 100 µM
SR leukemia
  TGI: > 100 µM
SK-MEL-28 melanoma
  TGI: > 100 µM
KM20L2 colon
  TGI: > 100 µM
HCT-116 colon
  TGI: > 100 µM
IGROV1 ovarian
  TGI: > 100 µM
NCI-H23 lung
  TGI: > 100 µM
M19-MEL melanoma
  TGI: > 100 µM

## C=C(CN1CCc2c([nH]c3ccccc23)C1)c1ccc(C(=O)Nc2ccccc2N)cc1
786-0 renal
  GI50: 4.96 µM
  TGI: 23.6 µM
SR leukemia
  GI50: 0.622 µM
  TGI: 50 µM
SK-MEL-28 melanoma
  GI50: 2.25 µM
  TGI: 16.1 µM
HCT-116 colon
  GI50: 2.19 µM
  TGI: 32.9 µM
IGROV1 ovarian
  GI50: 1.08 µM
  TGI: 18.9 µM
NCI-H23 lung
  GI50: 3.73 µM
  TGI: 19.9 µM
OVCAR-3 ovarian
  GI50: 18.4 µM
  TGI: 29.1 µM
MDA-MB-435
  GI50: 8.47 µM
  TGI: 17.7 µM

## CC(C)(C)[Si](C)(C)OC1[C@@H](CNC(N)=O)O[C@@H](n2cnc3c(NC(=O)Nc4ccccc4)ncnc32)[C@H]1O[Si](C)(C)C(C)(C)C (stereo partly drawn)
786-0 renal
  GI50: 2.22 µM
  TGI: 8.17 µM
SR leukemia
  GI50: 0.977 µM
  TGI: 1.99 µM
SK-MEL-28 melanoma
  GI50: 6.71 µM
  TGI: 14 µM
HCT-116 colon
  GI50: 0.78 µM
  TGI: 1.45 µM
IGROV1 ovarian
  GI50: 2.12 µM
  TGI: 7.36 µM
NCI-H23 lung
  GI50: 1.9 µM
  TGI: 7.83 µM
OVCAR-3 ovarian
  GI50: 1.12 µM
  TGI: 2.31 µM
MDA-MB-435
  GI50: 2.21 µM
  TGI: 8.51 µM

## CC1=Nc2ccccc2SC(c2c(Cl)cccc2Cl)C1 (stereo not drawn)
786-0 renal
  TGI: 1.49 µM
SK-MEL-28 melanoma
  TGI: 2.69 µM
KM20L2 colon
  TGI: 2.98 µM
HCT-116 colon
  TGI: 0.616 µM
IGROV1 ovarian
  TGI: 3.31 µM
NCI-H23 lung
  TGI: 2.64 µM
M19-MEL melanoma
  TGI: 2.44 µM
OVCAR-3 ovarian
  TGI: 0.885 µM

## O=[N+]([O-])c1cc([As](Br)c2ccc(O)c([N+](=O)[O-])c2)ccc1O
786-0 renal
  TGI: 4.36 µM
SR leukemia
  TGI: 0.566 µM
SK-MEL-28 melanoma
  TGI: 3.31 µM
HCT-116 colon
  TGI: 5.54 µM
IGROV1 ovarian
  TGI: 3.6 µM
NCI-H23 lung
  TGI: 4.37 µM
OVCAR-3 ovarian
  TGI: 3.53 µM
MDA-MB-435
  TGI: 3.51 µM

## C[N+](C)(C)CC1CCCCC1=O (stereo not drawn)
786-0 renal
  TGI: > 100 µM
SK-MEL-28 melanoma
  TGI: 31.6 µM
KM20L2 colon
  TGI: 4.65 µM
HCT-116 colon
  TGI: 31.5 µM
IGROV1 ovarian
  TGI: > 100 µM
NCI-H23 lung
  TGI: 40.8 µM
M19-MEL melanoma
  TGI: 35.2 µM
OVCAR-3 ovarian
  TGI: 34.5 µM

## CCn1cc(/C=C2\Oc3cc(OCC#N)ccc3C2=O)c2cc(OC)ccc21
786-0 renal
  GI50: 0.167 µM
  TGI: > 40.9 µM
SR leukemia
  GI50: 0.102 µM
  TGI: > 100 µM
SK-MEL-28 melanoma
  GI50: 6.71 µM
  TGI: > 100 µM
HCT-116 colon
  GI50: 0.143 µM
  TGI: > 100 µM
IGROV1 ovarian
  GI50: 0.509 µM
  TGI: > 100 µM
NCI-H23 lung
  GI50: 0.553 µM
  TGI: > 80.8 µM
OVCAR-3 ovarian
  GI50: 0.127 µM
  TGI: 4.94 µM
MDA-MB-435
  GI50: 0.0764 µM
  TGI: 0.263 µM

## O=C1/C(=C\c2ccco2)Oc2ccccc21
786-0 renal
  TGI: > 100 µM
SR leukemia
  TGI: > 100 µM
SK-MEL-28 melanoma
  TGI: > 100 µM
HCT-116 colon
  TGI: > 100 µM
IGROV1 ovarian
  TGI: > 100 µM
NCI-H23 lung
  TGI: > 100 µM
OVCAR-3 ovarian
  TGI: > 100 µM
MDA-MB-435
  TGI: > 100 µM

## COc1cc(OCc2cccc(-c3ccccc3)c2C)cc(OC)c1CN1CCCCC1C(=O)NCCOCCOCCN (stereo not drawn)
786-0 renal
  GI50: 1.83 µM
  TGI: 3.53 µM
SR leukemia
  GI50: 1.74 µM
  TGI: 4.24 µM
SK-MEL-28 melanoma
  GI50: 1.75 µM
  TGI: 3.22 µM
HCT-116 colon
  GI50: 2.04 µM
  TGI: 4.64 µM
IGROV1 ovarian
  GI50: 3.06 µM
  TGI: 12.1 µM
NCI-H23 lung
  GI50: 5.22 µM
  TGI: 19.2 µM
OVCAR-3 ovarian
  GI50: 2.11 µM
  TGI: 5.03 µM
MDA-MB-435
  GI50: 1.79 µM
  TGI: 3.32 µM

## N=c1c2ccccc2sc2nc3ccccc3n12
786-0 renal
  TGI: > 100 µM
SR leukemia
  TGI: > 100 µM
SK-MEL-28 melanoma
  TGI: > 100 µM
IGROV1 ovarian
  TGI: > 100 µM
NCI-H23 lung
  TGI: > 100 µM
M19-MEL melanoma
  TGI: > 100 µM

## Nc1nc(N)c2cc(Sc3ccc4ccccc4c3)ccc2n1
786-0 renal
  TGI: 3.27 µM
SR leukemia
  GI50: 0.805 µM
  TGI: 5 µM
SK-MEL-28 melanoma
  GI50: 1.54 µM
  TGI: 2.9 µM
HCT-116 colon
  TGI: 1.69 µM
IGROV1 ovarian
  GI50: 0.817 µM
  TGI: 14.1 µM
NCI-H23 lung
  TGI: 10.2 µM
OVCAR-3 ovarian
  TGI: 8.63 µM
MDA-MB-435
  TGI: 2.54 µM

Source: PubChem BioAssay (NCI)
